Results taken from BindingDB's records for doi:10.1021/jm020050+ (Glaxosmithkline, 2002).
pIC50: −log10 of the molar value.

What was measured:
[1] = target: T1, Enoyl-[acyl-carrier-protein] reductase [NADPH] FabI (Staphylococcus aureus (strain MRSA252), UniProt Q6GI75); test: Enzyme Inhibition Assay; settings: pH 6.5; 30 °C
T1 sequence (Q6GI75 whole entry): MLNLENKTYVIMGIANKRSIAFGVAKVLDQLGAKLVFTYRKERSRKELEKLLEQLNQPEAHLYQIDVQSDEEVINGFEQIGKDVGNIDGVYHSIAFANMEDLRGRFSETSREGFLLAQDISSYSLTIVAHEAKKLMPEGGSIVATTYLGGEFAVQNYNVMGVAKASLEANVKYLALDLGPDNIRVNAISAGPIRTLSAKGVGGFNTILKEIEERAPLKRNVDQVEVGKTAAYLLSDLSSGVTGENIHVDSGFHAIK
Protocol: (§1) Assays were carried out in half-area, 96-well microtiter plates. Compounds were evaluated in assay mixtures containing components specific for each enzyme. […] The consumption of NAD(P)H was monitored for 20 min at 30 °C by following the change in absorbance at 340 nm. IC50 values were estimated from a fit of the initial velocities to a standard equation.

[2] = target: T2, Enoyl-[acyl-carrier-protein] reductase [NADH] FabI (Haemophilus influenzae (strain ATCC 51907 / DSM 11121 / KW20 / Rd), UniProt P44432); test: Enzyme Inhibition Assay; settings: 30 °C
T2 sequence (P44432 whole entry): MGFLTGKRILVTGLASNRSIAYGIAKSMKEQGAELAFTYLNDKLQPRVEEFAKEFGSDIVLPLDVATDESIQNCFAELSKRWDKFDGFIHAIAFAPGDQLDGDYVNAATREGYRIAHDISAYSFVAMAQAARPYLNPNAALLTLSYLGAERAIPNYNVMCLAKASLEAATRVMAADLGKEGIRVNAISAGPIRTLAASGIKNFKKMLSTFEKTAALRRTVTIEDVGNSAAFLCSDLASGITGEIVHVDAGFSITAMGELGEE
Protocol: as §1

Row | pIC50 [1] | pIC50 [2] | SMILES
1 | 4.95 |  | CN(Cc1cc2ccccc2n1C)C(=O)/C=C/c1ccc(N)cc1 [(E)-3-(4-Aminophenyl)-N-methyl-N-(1-methyl-1H-indol-2-ylmethyl)acrylamide]
2 |  | < 4.00 | CN(Cc1cc2ccccc2n1C)C(=O)c1ccccc1 [N-Methyl-N-(1-methyl-1H-indol-2-ylmethyl)benzamide]
3 | 3.17 | < 4.00 | COC(=O)C[C@@H]1Nc2ccc(C(=O)N(C)Cc3cc4ccccc4n3C)cc2CN(C)C1=O [(2S)-2-[(Carbomethoxy)methyl]-N,4-dimethyl-N-(1-methyl-1H-indol-2-ylmethyl)-3-oxo-2,3,4,5-tetrahydro-1H-1,4-benzodiazepine-7-carboxamide]
